The record followed here is ChEMBL document CHEMBL1201862, “PubChem BioAssay data set” (2004).

For experiment [1], the target named is Mast/stem cell growth factor receptor Kit (Homo sapiens, UniProt P10721). The experiment is classed as functional.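 Further: KIT entry within a kinase panel assay.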
The target of experiment [2] is Calcium/calmodulin-dependent protein kinase type II subunit delta (Homo sapiens, UniProt Q13557). The class given is functional.
Experiment [3] concerns the target SRSF protein kinase 1 (Homo sapiens, UniProt Q96SB4). The class given is functional.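 Further: measured as one member of a kinome-wide kinase profiling panel.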
For experiment [4], the target named is Tyrosine-protein kinase receptor UFO (Homo sapiens, UniProt P30530). The class given is functional.
The target of experiment [5] is MAP kinase-activated protein kinase 2 (Homo sapiens, UniProt P49137). The class given is functional.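 Further: measured as one member of a kinome-wide kinase panel.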
The target in experiment [6] is Mitogen-activated protein kinase kinase kinase kinase 5 (Homo sapiens, UniProt Q9Y4K4). The class given is functional.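 Further: measured as one member of a kinome-spanning kinase panel.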
Experiment [7] addresses Serine/threonine-protein kinase PLK3 (Homo sapiens, UniProt Q9H4B4). The class given is functional.
Experiment [8] concerns the target Ribosomal protein S6 kinase alpha-5 (Homo sapiens, UniProt O75582). The class given is functional.
The target of experiment [9] is Tyrosine-protein kinase Fer (Homo sapiens, UniProt P16591). The class given is functional.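 Further: FER tested as one member of a kinome panel.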
The target of experiment [10] is Dual specificity protein kinase CLK2 (Homo sapiens, UniProt P49760). The experiment is classed as functional.
Experiment [11] addresses STE20-like serine/threonine-protein kinase (Homo sapiens, UniProt Q9H2G2). The class given is functional.
The target of experiment [12] is Proto-oncogene tyrosine-protein kinase ROS (Homo sapiens, UniProt P08922). The class given is functional.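 Further: ROS1 tested as one member of a kinome-wide kinase panel.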
In experiment [13] the target is Serine/threonine-protein kinase Chk1 (Homo sapiens, UniProt O14757). The experiment is classed as functional.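 Further: measured as one member of a kinome-wide kinase profiling panel.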
The target of experiment [14] is Protein kinase C gamma type (Homo sapiens, UniProt P05129). The class given is functional.
For experiment [15], the target named is Mitogen-activated protein kinase kinase kinase 20 (Homo sapiens, UniProt Q9NYL2). The class given is functional.
Experiment [16] has as its target MAP kinase-interacting serine/threonine-protein kinase 2 (Homo sapiens, UniProt Q9HBH9). The experiment is classed as functional.
Experiment [17] concerns the target Protein kinase C delta type (Homo sapiens, UniProt Q05655). The class given is functional.
Experiment [18] deals with Tyrosine-protein kinase JAK3 (Homo sapiens, UniProt P52333). The experiment is classed as functional.
For experiment [19], the target named is Casein kinase II subunit alpha (Homo sapiens, UniProt P68400). The class given is functional.
Experiment [20] concerns the target MAP kinase-activated protein kinase 5 (Homo sapiens, UniProt Q8IW41). The experiment is classed as functional.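 Further: measured as one member of a kinome panel.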
In experiment [21] the target is Interleukin-1 receptor-associated kinase 1 (Homo sapiens, UniProt P51617). The class given is functional.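 Further: IRAK1 tested as one member of a kinome panel.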
Experiment [22] addresses T1, Mannose-6-phosphate isomerase (Homo sapiens, UniProt P34949).
T1 sequence (P34949 whole entry): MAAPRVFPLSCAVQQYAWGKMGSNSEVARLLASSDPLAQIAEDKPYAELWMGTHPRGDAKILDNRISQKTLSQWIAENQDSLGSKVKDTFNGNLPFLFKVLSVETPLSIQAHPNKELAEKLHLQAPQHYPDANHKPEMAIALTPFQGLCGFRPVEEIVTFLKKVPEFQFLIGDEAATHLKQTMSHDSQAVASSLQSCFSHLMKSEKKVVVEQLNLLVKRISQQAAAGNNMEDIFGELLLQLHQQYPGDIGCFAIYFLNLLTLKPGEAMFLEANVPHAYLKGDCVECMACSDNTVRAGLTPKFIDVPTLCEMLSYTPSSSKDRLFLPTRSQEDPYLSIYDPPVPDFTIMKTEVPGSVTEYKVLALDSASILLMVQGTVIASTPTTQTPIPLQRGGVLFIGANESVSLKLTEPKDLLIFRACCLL
Kind of experiment: human PMI inhibitors, high substrate, primary screen, biochemical, fluorescence intensity, high mannose 6-phosphate (AID 1220).

The nature of experiment [23]: Luminescence Cell-Based Dose Response HTS to Identify Activators of Luciferase Translation or Activity in H4 […] Cells. [Related pubchem assays: 1829 (Project Summary), 1814 (Primary HTS)]. The experiment is classed as functional.
Experiment [24] addresses T2, Hexokinase (Trypanosoma brucei, UniProt Q38C41).
T2 sequence (Q38C41 whole entry): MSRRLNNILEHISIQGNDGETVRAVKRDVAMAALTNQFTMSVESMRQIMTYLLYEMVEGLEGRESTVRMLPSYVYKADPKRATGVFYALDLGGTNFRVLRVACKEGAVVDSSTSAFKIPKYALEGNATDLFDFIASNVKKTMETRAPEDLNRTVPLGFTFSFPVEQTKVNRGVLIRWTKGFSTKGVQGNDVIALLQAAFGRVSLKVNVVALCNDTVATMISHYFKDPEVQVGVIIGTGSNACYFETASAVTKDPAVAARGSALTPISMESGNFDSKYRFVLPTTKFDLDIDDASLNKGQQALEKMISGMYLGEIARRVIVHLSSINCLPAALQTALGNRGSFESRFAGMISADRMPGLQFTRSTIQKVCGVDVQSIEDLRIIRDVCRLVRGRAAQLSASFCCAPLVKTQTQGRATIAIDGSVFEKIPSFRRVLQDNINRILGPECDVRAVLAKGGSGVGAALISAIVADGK
Kind of experiment: Confirmation assay for inhibitors of Trypanosoma brucei hexokinase 1-Analogue-first series. [Related pubchem assays (depositor defined):AID1430, AID1632, AID2516, AID2560, AID2579, AID2600, AID449725, AID492951]. The experiment is classed as functional.

Experiment [25] addresses T1, Mannose-6-phosphate isomerase. As to the kind of experiment: inhibitors of human PMI, primary screen, biochemical, fluorescence intensity, coupled assay (AID 1209).
Experiment [26] can be described thus: growth suppression of PTEN-null colon cells, dose response, cell-based, HCT116 PTEN knockout (AID 1047).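 Further: HCT116 colon tumor cells with PTEN knocked out; cells exposed to compound for 60 hours before readout; potency for loss of cell viability measured by luminescence.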 The experiment is classed as functional.
Experiment [27] relates to HEK293. As to the kind of experiment: inhibitors of LMP1-driven NF-kB reporter, dose response, cell-based, HEK293, luciferase, cherry-pick (AID 588343). The class given is functional. Conditions: Homo sapiens.
In experiment [28] the target is Induced myeloid leukemia cell differentiation protein Mcl-1 (Homo sapiens, UniProt Q07820). The experiment is classed as functional.
Experiment [29] has as its target RNA-editing ligase 1, mitochondrial (Trypanosoma brucei brucei, UniProt P86926). Kind of experiment: TbREL1 ligase inhibitors, dose response, biochemical, fluorescence, Trypanosoma brucei (AID 1117295). The experiment is classed as functional.
The target of experiment [30] is Dual specificity tyrosine-phosphorylation-regulated kinase 1A (Rattus norvegicus, UniProt Q63470). The experiment is classed as biochemical, Homo sapiens.
Experiment [31] deals with Cytochrome P450 2C9 (Homo sapiens, UniProt P11712).
The subject of experiment [32] is Jurkat. Kind of experiment: SAR Analysis of small molecule inhibitors of T-cell specific antigen receptor-induced NF-kB activation in a Jurkat cell line using a luminescence assay. [Related pubchem assays (depositor defined):AID435003, AID435012, AID465]. Conditions: Homo sapiens. The experiment is classed as functional, cell-based.

Activity calls are given as the source filed them.

Tyrosine-protein kinase JAK3, sequence (P52333 whole entry): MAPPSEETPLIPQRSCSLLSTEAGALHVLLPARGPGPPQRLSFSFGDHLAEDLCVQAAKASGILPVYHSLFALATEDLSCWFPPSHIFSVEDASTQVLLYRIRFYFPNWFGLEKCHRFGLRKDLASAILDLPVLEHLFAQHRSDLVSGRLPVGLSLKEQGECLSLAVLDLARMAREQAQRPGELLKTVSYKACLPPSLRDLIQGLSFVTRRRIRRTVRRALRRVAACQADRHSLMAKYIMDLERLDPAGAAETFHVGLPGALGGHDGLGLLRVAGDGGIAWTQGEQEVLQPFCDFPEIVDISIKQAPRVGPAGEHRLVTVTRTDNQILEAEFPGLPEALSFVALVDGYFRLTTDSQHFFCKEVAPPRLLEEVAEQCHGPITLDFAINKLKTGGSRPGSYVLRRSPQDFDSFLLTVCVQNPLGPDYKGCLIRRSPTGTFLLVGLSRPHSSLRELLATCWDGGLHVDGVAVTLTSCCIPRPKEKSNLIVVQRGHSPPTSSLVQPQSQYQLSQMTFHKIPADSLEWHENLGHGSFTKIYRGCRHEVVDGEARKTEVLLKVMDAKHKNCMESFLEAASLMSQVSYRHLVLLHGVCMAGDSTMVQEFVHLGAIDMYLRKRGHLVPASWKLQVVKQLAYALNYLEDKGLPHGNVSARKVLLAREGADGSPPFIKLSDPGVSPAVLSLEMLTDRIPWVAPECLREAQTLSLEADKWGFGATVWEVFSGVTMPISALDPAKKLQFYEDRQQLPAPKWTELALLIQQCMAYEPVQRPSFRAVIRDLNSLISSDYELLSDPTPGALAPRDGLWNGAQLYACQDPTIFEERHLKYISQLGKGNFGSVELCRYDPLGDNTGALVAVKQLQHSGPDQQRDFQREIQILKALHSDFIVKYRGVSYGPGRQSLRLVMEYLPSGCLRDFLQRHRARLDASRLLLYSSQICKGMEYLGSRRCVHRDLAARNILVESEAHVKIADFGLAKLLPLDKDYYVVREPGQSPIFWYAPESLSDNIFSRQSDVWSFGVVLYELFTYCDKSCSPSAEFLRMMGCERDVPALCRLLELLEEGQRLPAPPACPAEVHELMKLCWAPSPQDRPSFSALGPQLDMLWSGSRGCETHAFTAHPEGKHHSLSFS
RNA-editing ligase 1, mitochondrial, sequence (P86926 whole entry): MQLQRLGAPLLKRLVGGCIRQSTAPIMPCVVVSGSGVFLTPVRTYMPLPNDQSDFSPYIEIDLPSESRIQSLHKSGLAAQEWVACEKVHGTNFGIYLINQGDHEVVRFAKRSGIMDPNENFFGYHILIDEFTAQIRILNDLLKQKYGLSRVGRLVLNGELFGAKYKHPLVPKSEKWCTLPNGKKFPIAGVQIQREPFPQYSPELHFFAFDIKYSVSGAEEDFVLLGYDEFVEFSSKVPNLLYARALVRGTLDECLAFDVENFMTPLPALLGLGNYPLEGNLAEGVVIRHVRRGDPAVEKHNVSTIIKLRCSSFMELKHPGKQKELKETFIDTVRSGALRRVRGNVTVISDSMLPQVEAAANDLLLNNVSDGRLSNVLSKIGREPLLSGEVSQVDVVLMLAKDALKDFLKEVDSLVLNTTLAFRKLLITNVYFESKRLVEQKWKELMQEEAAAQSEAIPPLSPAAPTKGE
Mitogen-activated protein kinase kinase kinase 20, sequence (Q9NYL2 whole entry): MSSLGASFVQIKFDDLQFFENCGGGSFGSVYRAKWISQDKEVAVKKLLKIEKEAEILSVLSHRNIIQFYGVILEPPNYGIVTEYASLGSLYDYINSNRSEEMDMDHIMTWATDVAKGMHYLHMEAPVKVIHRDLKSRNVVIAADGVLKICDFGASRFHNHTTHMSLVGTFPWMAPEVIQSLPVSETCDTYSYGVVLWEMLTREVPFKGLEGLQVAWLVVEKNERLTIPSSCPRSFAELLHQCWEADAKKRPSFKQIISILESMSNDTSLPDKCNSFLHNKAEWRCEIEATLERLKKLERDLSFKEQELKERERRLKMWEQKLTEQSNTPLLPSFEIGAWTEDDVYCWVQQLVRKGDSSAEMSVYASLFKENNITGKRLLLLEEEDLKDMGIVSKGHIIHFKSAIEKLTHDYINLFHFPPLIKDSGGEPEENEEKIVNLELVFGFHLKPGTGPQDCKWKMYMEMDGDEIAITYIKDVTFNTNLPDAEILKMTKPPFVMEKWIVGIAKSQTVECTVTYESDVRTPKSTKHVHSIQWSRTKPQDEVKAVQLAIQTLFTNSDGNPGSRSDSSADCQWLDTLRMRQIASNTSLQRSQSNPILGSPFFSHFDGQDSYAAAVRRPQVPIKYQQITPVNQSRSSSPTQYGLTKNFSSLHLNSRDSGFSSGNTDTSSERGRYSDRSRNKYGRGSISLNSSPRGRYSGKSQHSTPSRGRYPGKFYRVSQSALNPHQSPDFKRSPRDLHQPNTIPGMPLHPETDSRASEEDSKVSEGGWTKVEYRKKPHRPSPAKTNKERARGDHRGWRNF
Mast/stem cell growth factor receptor Kit, sequence (P10721 whole entry): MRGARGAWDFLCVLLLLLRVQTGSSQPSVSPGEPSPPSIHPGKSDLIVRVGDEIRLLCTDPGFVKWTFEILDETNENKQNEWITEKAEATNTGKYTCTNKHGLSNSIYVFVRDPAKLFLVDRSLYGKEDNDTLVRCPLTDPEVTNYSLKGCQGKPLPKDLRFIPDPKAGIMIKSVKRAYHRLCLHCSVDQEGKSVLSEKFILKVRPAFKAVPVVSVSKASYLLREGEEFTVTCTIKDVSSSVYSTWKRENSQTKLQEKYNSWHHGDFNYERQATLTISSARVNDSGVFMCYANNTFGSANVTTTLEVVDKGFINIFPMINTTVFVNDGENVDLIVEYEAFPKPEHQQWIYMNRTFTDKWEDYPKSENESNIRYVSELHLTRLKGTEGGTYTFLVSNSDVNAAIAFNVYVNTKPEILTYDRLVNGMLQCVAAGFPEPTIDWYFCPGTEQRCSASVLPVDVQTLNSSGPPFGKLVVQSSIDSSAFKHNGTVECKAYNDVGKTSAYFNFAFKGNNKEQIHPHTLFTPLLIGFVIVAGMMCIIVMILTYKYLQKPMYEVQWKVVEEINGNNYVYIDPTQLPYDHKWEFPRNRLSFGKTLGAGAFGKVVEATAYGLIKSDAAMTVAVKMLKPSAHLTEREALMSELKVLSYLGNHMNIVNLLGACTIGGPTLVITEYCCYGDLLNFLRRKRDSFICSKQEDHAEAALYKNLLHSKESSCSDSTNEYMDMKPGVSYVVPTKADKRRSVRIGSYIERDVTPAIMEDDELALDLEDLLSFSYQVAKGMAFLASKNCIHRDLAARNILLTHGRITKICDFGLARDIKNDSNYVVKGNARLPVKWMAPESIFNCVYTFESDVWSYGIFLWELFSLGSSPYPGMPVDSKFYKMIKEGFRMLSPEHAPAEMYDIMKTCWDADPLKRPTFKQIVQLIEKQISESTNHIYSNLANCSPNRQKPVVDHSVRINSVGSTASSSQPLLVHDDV
Casein kinase II subunit alpha, sequence (P68400 whole entry): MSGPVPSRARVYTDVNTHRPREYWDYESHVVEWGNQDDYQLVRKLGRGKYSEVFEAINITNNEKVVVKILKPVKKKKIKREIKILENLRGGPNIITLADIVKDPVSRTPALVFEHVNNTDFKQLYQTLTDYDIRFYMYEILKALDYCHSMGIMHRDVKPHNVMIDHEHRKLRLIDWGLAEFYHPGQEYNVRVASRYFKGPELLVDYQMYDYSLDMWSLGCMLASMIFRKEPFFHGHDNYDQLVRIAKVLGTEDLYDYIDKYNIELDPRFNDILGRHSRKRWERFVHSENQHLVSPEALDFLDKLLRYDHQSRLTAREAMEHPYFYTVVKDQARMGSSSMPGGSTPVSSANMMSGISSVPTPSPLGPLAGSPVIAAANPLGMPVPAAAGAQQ
Mitogen-activated protein kinase kinase kinase kinase 5, sequence (Q9Y4K4 whole entry): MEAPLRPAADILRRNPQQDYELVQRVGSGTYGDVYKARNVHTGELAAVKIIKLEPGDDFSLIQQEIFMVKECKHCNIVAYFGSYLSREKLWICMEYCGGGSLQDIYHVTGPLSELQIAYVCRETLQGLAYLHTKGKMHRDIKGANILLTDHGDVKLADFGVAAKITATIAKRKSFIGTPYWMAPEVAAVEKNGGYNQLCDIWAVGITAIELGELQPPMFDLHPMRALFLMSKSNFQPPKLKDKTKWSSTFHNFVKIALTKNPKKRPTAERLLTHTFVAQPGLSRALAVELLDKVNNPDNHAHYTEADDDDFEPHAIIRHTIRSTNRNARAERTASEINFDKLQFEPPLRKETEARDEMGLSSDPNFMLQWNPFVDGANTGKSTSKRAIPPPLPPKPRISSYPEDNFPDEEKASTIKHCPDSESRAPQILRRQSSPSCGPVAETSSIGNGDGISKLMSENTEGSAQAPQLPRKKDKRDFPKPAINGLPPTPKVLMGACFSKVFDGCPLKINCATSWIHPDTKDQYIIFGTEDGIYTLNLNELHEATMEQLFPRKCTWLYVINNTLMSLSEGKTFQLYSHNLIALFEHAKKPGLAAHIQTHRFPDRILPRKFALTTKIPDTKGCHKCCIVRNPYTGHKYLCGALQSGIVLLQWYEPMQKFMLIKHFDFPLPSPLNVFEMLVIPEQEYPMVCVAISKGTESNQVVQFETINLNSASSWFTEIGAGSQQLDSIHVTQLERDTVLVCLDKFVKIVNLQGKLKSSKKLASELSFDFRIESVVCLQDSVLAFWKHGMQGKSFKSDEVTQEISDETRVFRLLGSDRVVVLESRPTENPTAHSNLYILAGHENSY
MAP kinase-interacting serine/threonine-protein kinase 2, sequence (Q9HBH9 whole entry): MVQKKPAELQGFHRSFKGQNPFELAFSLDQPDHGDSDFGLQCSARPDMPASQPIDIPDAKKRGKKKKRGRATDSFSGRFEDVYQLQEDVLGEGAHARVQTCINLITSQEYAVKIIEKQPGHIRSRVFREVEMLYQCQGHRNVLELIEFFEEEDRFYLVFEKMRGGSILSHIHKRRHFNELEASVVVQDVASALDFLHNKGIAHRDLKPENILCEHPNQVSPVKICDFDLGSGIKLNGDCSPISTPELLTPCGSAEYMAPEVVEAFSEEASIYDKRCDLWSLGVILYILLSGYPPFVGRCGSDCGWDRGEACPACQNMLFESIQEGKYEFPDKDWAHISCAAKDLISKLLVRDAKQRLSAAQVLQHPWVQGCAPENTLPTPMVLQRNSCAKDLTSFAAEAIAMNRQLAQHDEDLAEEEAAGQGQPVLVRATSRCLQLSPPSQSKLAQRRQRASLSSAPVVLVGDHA

With `Cc1cccc(NC(=O)Nc2ccc3c(c2)CCc2sc4ncnc(N)c4c2-3)c1`, the Ki is > 1.26 µM (inactive) in experiment [1]; > 6.31 µM (inactive) in [2]; 3.16 µM (active) in experiment [3]; 0.0158 µM (active) in experiment [4]; > 7.94 µM (inactive) in experiment [5]; 0.501 µM (active) in [6]. The Ki was 2 µM (active) in experiment [7]; > 2 µM (inactive) in experiment [8]; > 1.58 µM (inactive) in experiment [9]; 1 µM (active) in experiment [10]; 0.0631 µM (active) in experiment [11]; 2 µM (active) in [12]. The Ki was > 7.94 µM (inactive) in [13]; > 7.94 µM (inactive) in [14]; 3.16 µM (active) in experiment [15]; 0.0794 µM (active) in experiment [16]; 7.94 µM (active) in [17]; > 1.58 µM (inactive) in experiment [18]. The Ki in [19] was > 6.31 µM (inactive); in experiment [20] it was > 1.58 µM (inactive); in [21] it was > 7.94 µM (inactive).
On to `Cc1ccc(-n2sc3ccccc3c2=O)cc1`, for which the IC50 in experiment [22] was 22 µM (active); in [24], 2.64 µM (active); in experiment [25] it was 6.78 µM (active). Further, the results for the EC50 in [23] and in experiment [26] were 23.3 µM (active) and 31.1 µM (active), respectively.
In the case of `CCC(=O)NC(c1ccc(C)cc1)c1ccc2cccnc2c1O` (configuration not stated), the AC50 in [27] was 4.51 µM (active).
In the case of `N/C(=N\N=C/c1ccc(-c2ccc(O)c(C(=O)O)c2)o1)N[N+](=O)[O-]`, the results for the IC50 in experiment [28] and in experiment [29] were 3.86 µM (active) and 21.2 µM (inactive), respectively. Also, the AC50 in experiment [30] was 1.13 µM (active); in experiment [31] it was 7.94 µM (inconclusive).
For `CCCC(=O)NC(c1ccc(Cl)cc1)c1ccc2cccnc2c1O` (configuration not stated), in experiment [32], the IC50 was 4.13 µM (active).

Broadly, the Ki is the dissociation constant of the complex between target and ligand, obtained from inhibition or displacement. As a reminder, the IC50 is the midpoint of a concentration-inhibition curve. In general, EC50 refers to the concentration giving half of the maximal effect. The AC50 is the midpoint of the concentration-response curve, whichever way the signal moves.
